# Data as given in patent US20250263415A1, “TERTIARY AMIDE DERIVATIVES SUBSTITUTED WITH 4-MEMBERED RING STRUCTURE” (Sumitomo Pharma Co., Ltd., priority 2024, published 2025).
# How the values were obtained:
# hSERT = hSERT (Homo sapiens (Human), UniProt P31645); test: Serotonin receptor inhibitory activity evaluation (binding assay, HEK293/hSERT membranes); settings: off-target
# Protocol: The binding evaluation assay was outsourced to Eurofins. Specifically, HEK293/hSERT cells were homogenized in a buffer consisting of 100 mmol/L NaCl, 1 μmol/L Leupeptin, 10 μmol/L PMSF, and 50 mmol/L Tris-HCl (pH7.4). The membrane pellet obtained by centrifugation was resuspended in an incubation buffer consisting of 50 mmol/L Tris-HCl (pH 7.4), 120 mmol/L NaCl, and 5 mmol/L KCl to prepare a membrane preparation. The test compound (1-10 μmol/L DMSO solution), the membrane preparation, and 0.4 nmol/L [^3H]Paroxetin were mixed and incubated at 25° C. for 60 minutes. The cell membrane-[^3H]Paroxetin complex was bound to a GF/B filter mat by vacuum filtration and washed with 50 mmol/L Tris-HCl (pH 7.4). The effect on the receptor was assessed by measuring radioactivity using a scintillation counter.
# [1] = Pharmacokinetic study in mice; assay type: in vivo
# Protocol: The test compound was administered to 7-week-old female BALE/c (BALB/cAnN CrlCrlj) mice intravenously (dosage: 1 mg/kg) in a 50% PEG solution (0.01 mol/L HCl) or orally (dosage: 10 mg/kg) in a 0.5% methylcellulose aqueous solution, and blood was collected at the following times: • Intravenous administration: 5 min, 15 min, 30 min, 1 hr, 2 hr, 4 hr, 6 hr, and 24 hr after administration • Oral administration: 15 min, 30 min, 1 hr, 2 hr, 4 hr, 6 hr, and 24 hr after administration
# The collected blood was centrifuged at 3000 rpm×10 min using a refrigerated centrifuge set at 4° C., and the obtained plasma was measured by LC-MS. A calibration curve was prepared from the value (peak ratio) obtained by dividing the peak area of the test substance by the peak area of the internal standard substance in MS and the concentration of the plasma calibration curve sample. The concentration in the sample was calculated from the peak ratio and the calibration curve of each sample.
# G-401 xenograft [2] = test: Drug efficacy evaluation by intravenous administration using G-401 xenograft mice model; assay type: in vivo; settings: G-401 xenograft model
# Protocol: G-401 cells (ATCC) were intradermally transplanted into 4-7-week-old BALB/cAnNCrj-nu/nu mice (CAnN.Cg-Foxnl/CrlCrlj, Jackson Laboratory Japan) at 5×10^5 cells/mouse. After confirming the engraftment of G-401 cells 10-40 days after transplantation, the test compound suspended in a solvent such as 10 mmol/L glycine buffer solution (pH 2.0) was administered via the tail vein at least once a week at a dose of 0.015-20 mg/kg. The tumor volume was measured over time from the start of administration, and the effect of tumor volume reduction by administration of the test compound was evaluated. The tumor volume can be calculated from the following equation using the minor axis and major axis of the tumor measured with an electronic caliper (Mitutoyo).
# A control administration group administered with only a solvent such as 10 mmol/L glycine buffer solution (pH 2.0) and a test compound administration group were compared, and the antitumor effect was evaluated by calculating T/C from the following equation.
# G-401 cells = test: Cell proliferation inhibition experiment using G-401 cells; assay type: cell-based
# Protocol: G-401 cells (derived from malignant rhabdoid tumor) were obtained from the American Type Culture Collection (ATCC). G-401 cells were cultured in McCoy's 5A medium containing 10% fetal bovine serum and 1% penicillin/streptomycin under conditions of 37° C. and 5% CO2.
# 500 cells per well were seeded in a 384-well plate. One day after seeding, Examples 1 to 35 were added so that the final concentration of DMSO was 0.1%, and the cells were cultured for 3 days. After the culture was completed, the cell viability was measured using CellTiter-Glo Luminescent Cell Viability Assay (Promega, G7570).
# recombinant p300 = recombinant p300 (Homo sapiens (Human), UniProt Q09472); test: HAT activity inhibition experiment (SensoLyte HAT(p300) Assay Kit); assay type: biochemical
# recombinant p300, sequence (Q09472 whole entry): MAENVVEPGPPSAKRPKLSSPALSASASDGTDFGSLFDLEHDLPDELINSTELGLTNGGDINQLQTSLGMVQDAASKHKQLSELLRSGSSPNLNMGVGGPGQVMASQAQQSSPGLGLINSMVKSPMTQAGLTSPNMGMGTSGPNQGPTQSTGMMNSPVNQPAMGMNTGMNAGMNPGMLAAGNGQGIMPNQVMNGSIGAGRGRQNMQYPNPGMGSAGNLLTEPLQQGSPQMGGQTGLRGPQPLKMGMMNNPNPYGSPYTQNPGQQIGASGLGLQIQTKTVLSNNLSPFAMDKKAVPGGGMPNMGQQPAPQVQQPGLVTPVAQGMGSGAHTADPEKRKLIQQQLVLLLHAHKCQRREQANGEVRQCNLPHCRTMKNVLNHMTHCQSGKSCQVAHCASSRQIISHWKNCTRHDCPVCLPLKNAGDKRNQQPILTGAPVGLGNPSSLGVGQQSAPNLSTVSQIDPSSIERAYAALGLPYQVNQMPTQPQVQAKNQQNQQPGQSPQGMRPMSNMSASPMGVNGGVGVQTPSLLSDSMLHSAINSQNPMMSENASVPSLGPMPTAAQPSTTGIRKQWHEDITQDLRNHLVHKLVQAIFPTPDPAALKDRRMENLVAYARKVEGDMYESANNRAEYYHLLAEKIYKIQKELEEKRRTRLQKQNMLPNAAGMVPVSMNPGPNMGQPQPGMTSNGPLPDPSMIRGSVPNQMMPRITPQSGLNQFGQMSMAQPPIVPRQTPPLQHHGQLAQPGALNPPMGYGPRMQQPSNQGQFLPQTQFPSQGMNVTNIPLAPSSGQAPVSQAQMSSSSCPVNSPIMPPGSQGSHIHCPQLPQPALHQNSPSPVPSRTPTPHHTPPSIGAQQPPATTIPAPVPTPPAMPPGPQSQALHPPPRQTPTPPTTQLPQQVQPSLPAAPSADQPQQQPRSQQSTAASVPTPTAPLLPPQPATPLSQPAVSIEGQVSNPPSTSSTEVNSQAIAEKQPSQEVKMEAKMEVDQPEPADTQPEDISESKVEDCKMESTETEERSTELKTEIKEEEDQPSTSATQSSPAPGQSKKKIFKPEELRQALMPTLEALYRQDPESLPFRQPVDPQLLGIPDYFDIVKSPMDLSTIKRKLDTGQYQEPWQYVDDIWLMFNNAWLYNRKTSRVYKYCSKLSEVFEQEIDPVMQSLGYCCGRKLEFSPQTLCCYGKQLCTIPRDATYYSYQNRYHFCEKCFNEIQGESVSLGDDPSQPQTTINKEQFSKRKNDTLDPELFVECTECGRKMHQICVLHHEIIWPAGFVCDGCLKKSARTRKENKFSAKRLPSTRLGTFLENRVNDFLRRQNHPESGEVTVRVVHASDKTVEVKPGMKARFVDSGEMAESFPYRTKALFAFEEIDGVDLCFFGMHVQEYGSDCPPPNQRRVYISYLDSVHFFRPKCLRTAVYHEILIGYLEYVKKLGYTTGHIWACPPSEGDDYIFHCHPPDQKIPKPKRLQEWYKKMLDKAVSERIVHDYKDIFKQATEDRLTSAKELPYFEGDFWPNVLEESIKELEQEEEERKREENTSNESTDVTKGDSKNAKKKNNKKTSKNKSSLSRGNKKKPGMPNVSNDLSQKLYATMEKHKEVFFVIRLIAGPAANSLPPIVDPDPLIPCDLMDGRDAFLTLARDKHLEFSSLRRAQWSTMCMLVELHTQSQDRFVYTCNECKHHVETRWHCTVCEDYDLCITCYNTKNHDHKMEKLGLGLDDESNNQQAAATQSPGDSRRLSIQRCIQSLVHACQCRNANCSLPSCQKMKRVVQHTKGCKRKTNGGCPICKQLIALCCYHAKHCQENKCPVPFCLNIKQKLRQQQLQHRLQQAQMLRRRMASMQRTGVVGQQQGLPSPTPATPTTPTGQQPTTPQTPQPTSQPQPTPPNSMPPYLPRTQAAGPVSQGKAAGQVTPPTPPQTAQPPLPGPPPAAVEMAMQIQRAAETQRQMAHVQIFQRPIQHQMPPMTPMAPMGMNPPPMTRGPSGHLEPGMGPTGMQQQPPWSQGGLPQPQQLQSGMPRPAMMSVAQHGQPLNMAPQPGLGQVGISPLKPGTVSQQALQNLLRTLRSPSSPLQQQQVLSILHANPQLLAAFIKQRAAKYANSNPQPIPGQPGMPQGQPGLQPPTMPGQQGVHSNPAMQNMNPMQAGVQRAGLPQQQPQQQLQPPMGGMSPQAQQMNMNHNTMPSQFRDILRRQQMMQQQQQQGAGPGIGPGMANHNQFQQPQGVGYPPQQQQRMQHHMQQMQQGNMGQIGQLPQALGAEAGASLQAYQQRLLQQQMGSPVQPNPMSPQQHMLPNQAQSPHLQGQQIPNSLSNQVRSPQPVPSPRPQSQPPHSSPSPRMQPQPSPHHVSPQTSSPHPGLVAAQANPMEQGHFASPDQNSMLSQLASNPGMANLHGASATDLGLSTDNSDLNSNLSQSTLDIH
# Protocol: The HAT activity inhibitory ability of HAT inhibitors was evaluated using SensoLyte HAT(p300) Assay Kit (ANASPEC, AS-72172). Specifically, 7.5 μL of the compound of Examples […] diluted with assay buffer was added to 7.5 μL of recombinant p300 solution diluted 10 times with assay buffer, and the mixture was incubated at room temperature for 10 minutes. 7.5 μL of acetyl CoA solution diluted 10 times with assay buffer and 15 μL of histone H3 peptide diluted 10 times with assay buffer were added thereto, and the mixture was incubated at 37° C. for 30 minutes. 37.5 μL of Stop Solution was added to stop the reaction. 75 μL of p300 Developer solution diluted 50 times with assay buffer was added, and the mixture was incubated at room temperature for 30 minutes under light-shielded conditions. The fluorescence at 513 nm when irradiated with 389 nm excitation light was measured using a multiplate reader.
# Solubility test = assay type: physicochemical; settings: pH 2.0 and pH 3.0 buffers
# Protocol: The solubility was measured for Examples 7, 10, 20, 23, 24, and 30 to 34, Comparative Example 1, and Comparative Example 2. The test compound was added to 10 mmol/L glycine buffer (pH 2.0) and 10 mmol/L citrate buffer (pH 3.0), and the mixture was stored in a thermostatic chamber at 5° C. After standing overnight, the mixture was filtered through a membrane filter, and the concentration of the filtrate was measured by HPLC.
# The HPLC measurement conditions are as follows.
# HPLC conditions • Column: Acquity UPLC BEH C18, 1.7 μm, 50×2.1 mm • Column temperature: 40° C. • Mobile phase: A: 0.1% trifluoroacetic acid-containing water • B: acetonitrile • A/B (min): 95/5 (0)→0/100 (3.5)→0/100 (4)→95/5 (4.01)→95/5 (5) • Flow rate: 0.8 mL/min • Detection: UV visible detector, measurement wavelength 254 nm • Injection volume: 5 μL or • Column: Acquity UPLC BEH C18, 1.7 μm, 50×2.1 mm • Column temperature: 40° C. • Mobile phase: A: 0.1% trifluoroacetic acid-containing water • B: acetonitrile • A/B (min): • 80/20 (0)→40/60 (3.0)→0/100 (3.5)→0/100 (4)→80/20 (4.01)→80/20 (5) • Flow rate: 0.8 mL/min • Detection: UV visible detector, measurement wavelength 254 nm • Injection volume: 2 μL or • Column: Acquity UPLC BEH C18, 1.7 μm, 50×2.1 mm • Column temperature: 40° C. • Mobile phase: A: 0.1% trifluoroacetic acid-containing water • B: acetonitrile • A/B (min): • 80/20 (0)→40/60 (3.0)→0/100 (3.5)→0/100 (4)→100/0 (4.01)→100/0 (5) • Flow rate: 0.8 mL/min • Detection: UV visible detector, measurement wavelength 254 nm • Injection volume: 3 μL
# hDAT = hDAT (Homo sapiens (Human), UniProt Q01959); test: Dopamine receptor inhibitory activity evaluation (binding assay, CHO-S/hDAT membranes); settings: off-target
# hDAT, sequence (Q01959 whole entry): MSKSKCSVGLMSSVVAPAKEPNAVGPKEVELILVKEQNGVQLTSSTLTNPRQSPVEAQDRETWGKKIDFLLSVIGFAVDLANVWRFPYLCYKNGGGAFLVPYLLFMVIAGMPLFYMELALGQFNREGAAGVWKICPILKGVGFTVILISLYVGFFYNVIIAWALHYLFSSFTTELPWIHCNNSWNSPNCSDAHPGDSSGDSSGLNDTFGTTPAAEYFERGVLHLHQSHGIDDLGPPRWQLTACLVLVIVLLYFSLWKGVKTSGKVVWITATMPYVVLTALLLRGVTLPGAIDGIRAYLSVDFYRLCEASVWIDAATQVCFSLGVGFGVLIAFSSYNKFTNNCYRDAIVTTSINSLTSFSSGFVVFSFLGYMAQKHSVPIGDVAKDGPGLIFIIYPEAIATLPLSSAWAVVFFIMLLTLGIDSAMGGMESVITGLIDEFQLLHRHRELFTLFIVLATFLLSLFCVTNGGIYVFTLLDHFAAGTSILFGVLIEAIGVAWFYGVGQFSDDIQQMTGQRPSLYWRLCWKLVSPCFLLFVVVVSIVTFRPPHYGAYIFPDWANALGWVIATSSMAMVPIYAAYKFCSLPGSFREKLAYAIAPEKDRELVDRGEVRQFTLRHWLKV
# Protocol: The binding evaluation assay was outsourced to Eurofins. Specifically, CHO—S/hDAT cells were homogenized in an incubation buffer consisting of 50 mmol/L Tris-HCl, pH 7.4, 100 mmol/L NaCl, 1 μmol/L Leupeptin, and 10 μmol/L PMSF. The membrane pellet obtained by centrifugation was resuspended in the incubation buffer to prepare a membrane preparation. The test compound (1-10 μmol/L DMSO solution), the membrane preparation, and 0.15 nmol/L […] were mixed and incubated at 4° C. for 180 minutes. The cell membrane-[^125I]RTI-55 complex was bound to a GF/B filter mat by vacuum filtration and washed with 50 mmol/L Tris-HCl, pH 7.4. The effect on the receptor was assessed by measuring radioactivity using a scintillation counter.
# G-401 xenograft [3] = test: Drug efficacy evaluation by oral administration using G-401 xenograft model mice; assay type: in vivo
# Protocol: G-401 cells (ATCC) were intradermally transplanted into 4-7-week-old BALB/cAnNCrj-nu/nu mice (CAnN.Cg-Foxnl/CrlCrlj, Jackson Laboratory Japan) at 5×10^5 cells/mouse. After confirming the engraftment of G-401 cells 10-40 days after transplantation, the test compound suspended in a solvent such as 0.5% methylcellulose solution was orally administered twice a day at a dose of 1-100 mg/kg. The tumor volume was measured over time from the start of administration, and the effect of tumor volume reduction by administration of the test compound was evaluated. The tumor volume can be calculated from the following equation using the minor axis and major axis of the tumor measured with an electronic caliper (Mitutoyo).
# A control administration group administered with only a solvent such as 0.5% methylcellulose solution and a test compound administration group were compared, and the antitumor effect was evaluated by calculating T/C from the following equation.
# hSERT, sequence (P31645 whole entry): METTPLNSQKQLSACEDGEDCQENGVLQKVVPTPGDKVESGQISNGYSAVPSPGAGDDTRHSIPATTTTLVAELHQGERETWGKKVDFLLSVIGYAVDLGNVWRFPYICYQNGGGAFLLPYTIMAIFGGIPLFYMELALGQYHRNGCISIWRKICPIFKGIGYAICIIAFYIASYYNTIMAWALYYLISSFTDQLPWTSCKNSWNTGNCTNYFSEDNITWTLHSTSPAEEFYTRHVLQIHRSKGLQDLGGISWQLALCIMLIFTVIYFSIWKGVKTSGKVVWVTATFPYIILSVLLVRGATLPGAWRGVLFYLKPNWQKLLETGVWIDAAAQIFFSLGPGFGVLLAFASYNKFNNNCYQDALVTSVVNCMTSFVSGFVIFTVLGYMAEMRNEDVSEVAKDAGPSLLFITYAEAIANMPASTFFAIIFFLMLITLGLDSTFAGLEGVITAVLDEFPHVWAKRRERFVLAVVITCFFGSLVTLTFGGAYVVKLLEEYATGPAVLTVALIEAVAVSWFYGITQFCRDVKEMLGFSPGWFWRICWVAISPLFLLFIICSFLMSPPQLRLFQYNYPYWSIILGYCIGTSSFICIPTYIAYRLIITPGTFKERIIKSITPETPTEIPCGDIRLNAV
compound,measurement,setting,value
"O=C1N[C@]2(C[C@@H](F)c3cc(-c4cnn(C5CN(C6COC6)C5)c4)ccc32)C(=O)N1CC(=O)N(Cc1ccc(F)cn1)C1(C(F)(F)F)COC1 [Example 7, 2-[(1′S,3′R)-3′-fluoro-5′-{1-[1-(oxetan-3-yl)azetidin-3-yl]-1H-pyrazol-4-yl}-2,5-dioxo-2′,3′-dihydrospiro[imidazolidine-4,1′-inden]-1-yl]-N-[(5-fluoropyridin-2-yl)methyl]-N-[3-(trifluoromethyl)oxetan-3-yl]acetamide]",Inhibitory effect on serotonin receptors (in words),hSERT,did not show strong inhibitory activity
same,Pharmacokinetics (in words),[1],excellent pharmacokinetics
same,"Antitumor effect, intravenous administration (in words)",G-401 xenograft [2],strong antitumor effects
same,Cell proliferation inhibitory effect on G-401 cells (in words),G-401 cells,strong cell proliferation inhibitory effect
same,HAT activity inhibition (in words),recombinant p300,strong inhibition of HAT activity
same,Solubility (in words),Solubility test,high solubility
same,Inhibitory effect on dopamine receptors (in words),hDAT,did not show strong inhibitory activity
same,"Antitumor effect, oral administration (in words)",G-401 xenograft [3],strong antitumor effects
